From patent US6737383B1, “Herbicidal oxadiazolidines” (priority 1999, dated 2004)

What was measured:
corn = assay: Test B pre/postemergence corn; format: in vivo, Zea mays
Summary of the method: (§1)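 Herbicidal effect was estimated by eye on a ten-point control scale after plants spent twelve to sixteen days in a greenhouse following soil or foliar treatment. Foliar sprays targeted plants at one to four leaves; all doses were formulated in a non-phytotoxic solvent with surfactant.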

pigweed = assay: Test B pre/postemergence pigweed; format: in vivo, Amaranthus retroflexus
Summary of the method: as §1

morningglory = assay: Test B pre/postemergence morningglory; format: in vivo, Ipomoea hederacea
Summary of the method: as §1

giant foxtail = assay: Test B pre/postemergence giant foxtail; format: in vivo, Setaria faberii
Summary of the method: as §1

duck salad = assay: Test B flood test duck salad; format: in vivo, Heteranthera limosa; conditions: Pre-emergence
Summary of the method: (§2)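 Plants were grown to the 2-leaf stage before treatment with test chemical, then held in a greenhouse for twelve to sixteen days. Injury was visually rated against untreated controls on a 0–10 scale, where 0 is no effect and 10 is complete control.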

soybean = assay: Test B pre/postemergence soybean; format: in vivo, Glycine max
Summary of the method: as §1

purple nutsedge = assay: Test B pre/postemergence purple nutsedge; format: in vivo, Cyperus rotundus
Summary of the method: as §1

blackgrass = assay: Test B pre/postemergence blackgrass; format: in vivo, Alopecurus myosuroides
Summary of the method: as §1

cocklebur = assay: Test B pre/postemergence cocklebur; format: in vivo, Xanthium strumarium
Summary of the method: as §1

smallflower flatsedge = assay: Test B flood test smallflower flatsedge; format: in vivo, Cyperus difformis; conditions: Pre-emergence
Summary of the method: as §2

bamyardgrass = assay: Test B flood test barnyardgrass; format: in vivo, Echinochloa crus-galli; conditions: Pre-emergence
Summary of the method: as §2

wheat = assay: Test B pre/postemergence wheat; format: in vivo, Triticum aestivum
Summary of the method: as §1

sugar beet = assay: Test B pre/postemergence sugar beet; format: in vivo, Beta vulgaris
Summary of the method: as §1

bedstraw = assay: Test B pre/postemergence bedstraw; format: in vivo, Galium aparine
Summary of the method: as §1

velvetleaf = assay: Test B pre/postemergence velvetleaf; format: in vivo, Abutilon theophrasti
Summary of the method: as §1

rice = assay: Test B flood test rice; format: in vivo, Oryza sativa; conditions: Pre-emergence
Summary of the method: as §2

rape = assay: Test B pre/postemergence rape; format: in vivo, Brassica napus
Summary of the method: as §1

surinam grass = assay: Test B pre/postemergence surinam grass; format: in vivo, Brachiaria decumbens
Summary of the method: as §1

wild oat = assay: Test B pre/postemergence wild oat; format: in vivo, Avena fatua
Summary of the method: as §1

crabgrass = assay: Test B pre/postemergence crabgrass; format: in vivo, Digitaria sanguinalis
Summary of the method: as §1

[1] = Preemergence, Rate 31 g/ha, visual rating, scale 0 to 10 (0 no effect, 10 complete control)
[2] = Preemergence, Rate 62 g/ha, scale of 0 to 10 where 0 is no effect and 10 is complete control
[3] = Preemergence, Rate 250 g/ha, scale of 0 to 10 where 0 is no effect and 10 is complete control
[4] = Rate 31 g/ha, Postemergence, scale 0 to 10
[5] = Rate 62 g/ha, Postemergence, scale of 0 to 10 where 0 is no effect and 10 is complete control
[6] = Rate 125 g/ha, Postemergence, scale 0 to 10
[7] = Rate 125 g/ha, Preemergence, scale of 0 to 10 where 0 is no effect and 10 is complete control
[8] = Rate 1000 g/ha, scale 0 to 10 (0 no effect, 10 complete control)
[9] = Rate 125 g/ha, flood test species, scale 0 to 10 where 0 is no effect and 10 is complete control
[10] = Rate 250 g/ha, flood-test species, scale 0 to 10, 0 is no effect, 10 is complete control
[11] = Rate 500 g/ha, flood test species, scale 0 to 10 (0 no effect, 10 complete control)

CCOC(=O)C(C)N(C(=O)n1oc(=O)n(-c2c(C)cccc2C)c1=O)c1ccc(F)cc1 (stereo not drawn) [Compound 244]
0: Corn plant response rating (corn; [1]) | Corn plant response rating (corn; [2]) | Corn plant response rating (corn; [3]) | Corn plant response rating (corn; [4]) | Corn plant response rating (corn; [5]) | Corn plant response rating (corn; [6]) | Corn plant response rating (corn; [7]) | Plant response rating (0 to 10; 0 is no effect, 10 is complete control), Corn (corn; Rate 250 g/ha, Postemergence) | Redroot pigweed plant response rating (pigweed; [1]) | Redroot pigweed plant response rating (pigweed; [2]) | Redroot pigweed plant response rating (pigweed; [3]) | Redroot pigweed plant response rating (pigweed; [4]) | Redroot pigweed plant response rating (pigweed; [5]) | Redroot pigweed plant response rating (pigweed; [7]) | Plant response rating (0 to 10; 0 is no effect, 10 is complete control), Redroot pigweed (pigweed; Rate 250 g/ha, Postemergence) | Morningglory plant response rating (morningglory; [1]) | Morningglory plant response rating (morningglory; [2]) | Morningglory plant response rating (morningglory; [3]) | Morningglory plant response rating (morningglory; [4]) | Morningglory plant response rating (morningglory; [5]) | Morningglory plant response rating (morningglory; [7]) | Plant response rating (0 to 10; 0 is no effect, 10 is complete control), Morningglory (morningglory; Rate 250 g/ha, Postemergence) | Giant foxtail plant response rating (giant foxtail; [1]) | Giant foxtail plant response rating (giant foxtail; [2]) | Giant foxtail plant response rating (giant foxtail; [3]) | Giant foxtail plant response rating (giant foxtail; [4]) | Giant foxtail plant response rating (giant foxtail; [5]) | Giant foxtail plant response rating (giant foxtail; [7]) | Plant response rating (0 to 10; 0 is no effect, 10 is complete control), Giant foxtail (giant foxtail; Rate 250 g/ha, Postemergence) | Ducksalad plant response rating (duck salad; [8]) | Ducksalad plant response rating (duck salad; [9]) | Ducksalad plant response rating (duck salad; [10]) | Ducksalad plant response rating (duck salad; [11]) | Soybean plant response rating (soybean; [1]) | Soybean plant response rating (soybean; [2]) | Soybean plant response rating (soybean; [3]) | Soybean plant response rating (soybean; [5]) | Soybean plant response rating (soybean; [7]) | Nutsedge plant response rating (purple nutsedge; [1]) | Nutsedge plant response rating (purple nutsedge; [2]) | Nutsedge plant response rating (purple nutsedge; [3]) | Nutsedge plant response rating (purple nutsedge; [4]) | Nutsedge plant response rating (purple nutsedge; [5]) | Nutsedge plant response rating (purple nutsedge; [7]) | Plant response rating (0 to 10; 0 is no effect, 10 is complete control), Nutsedge (purple nutsedge; Rate 250 g/ha, Postemergence) | Blackgrass plant response rating (blackgrass; [1]) | Blackgrass plant response rating (blackgrass; [2]) | Blackgrass plant response rating (blackgrass; [3]) | Blackgrass plant response rating (blackgrass; [4]) | Blackgrass plant response rating (blackgrass; [5]) | Blackgrass plant response rating (blackgrass; [6]) | Blackgrass plant response rating (blackgrass; [7]) | Plant response rating (0 to 10; 0 is no effect, 10 is complete control), Blackgrass (blackgrass; Rate 250 g/ha, Postemergence) | Cocklebur plant response rating (cocklebur; [1]) | Cocklebur plant response rating (cocklebur; [2]) | Cocklebur plant response rating (cocklebur; [3]) | Cocklebur plant response rating (cocklebur; [4]) | Cocklebur plant response rating (cocklebur; [5]) | Cocklebur plant response rating (cocklebur; [6]) | Cocklebur plant response rating (cocklebur; [7]) | Plant response rating (0 to 10; 0 is no effect, 10 is complete control), Cocklebur (cocklebur; Rate 250 g/ha, Postemergence) | S. Flatsedge plant response rating (smallflower flatsedge; [8]) | S. Flatsedge plant response rating (smallflower flatsedge; [9]) | S. Flatsedge plant response rating (smallflower flatsedge; [10]) | S. Flatsedge plant response rating (smallflower flatsedge; [11]) | Barnyardgrass plant response rating (bamyardgrass; [8]) | Barnyardgrass plant response rating (bamyardgrass; [9]) | Barnyardgrass plant response rating (bamyardgrass; [10]) | Barnyardgrass plant response rating (bamyardgrass; [11]) | Wheat plant response rating (wheat; [1]) | Wheat plant response rating (wheat; [2]) | Wheat plant response rating (wheat; [3]) | Wheat plant response rating (wheat; [5]) | Wheat plant response rating (wheat; [7]) | Sugarbeets plant response rating (sugar beet; [1]) | Sugarbeets plant response rating (sugar beet; [2]) | Sugarbeets plant response rating (sugar beet; [3]) | Sugarbeets plant response rating (sugar beet; [5]) | Sugarbeets plant response rating (sugar beet; [7]) | Bedstraw plant response rating (bedstraw; [1]) | Bedstraw plant response rating (bedstraw; [2]) | Bedstraw plant response rating (bedstraw; [3]) | Bedstraw plant response rating (bedstraw; [4]) | Bedstraw plant response rating (bedstraw; [5]) | Bedstraw plant response rating (bedstraw; [6]) | Bedstraw plant response rating (bedstraw; [7]) | Plant response rating (0 to 10; 0 is no effect, 10 is complete control), Bedstraw (bedstraw; Rate 250 g/ha, Postemergence) | Velvetleaf plant response rating (velvetleaf; [1]) | Velvetleaf plant response rating (velvetleaf; [2]) | Velvetleaf plant response rating (velvetleaf; [3]) | Velvetleaf plant response rating (velvetleaf; [5]) | Velvetleaf plant response rating (velvetleaf; [7]) | Rice plant response rating (rice; [8]) | Rice plant response rating (rice; [9]) | Rice plant response rating (rice; [10]) | Rice plant response rating (rice; [11]) | Rape plant response rating (rape; [1]) | Rape plant response rating (rape; [2]) | Rape plant response rating (rape; [3]) | Rape plant response rating (rape; [4]) | Rape plant response rating (rape; [5]) | Rape plant response rating (rape; [7]) | Plant response rating (0 to 10; 0 is no effect, 10 is complete control), Rape (rape; Rate 250 g/ha, Postemergence) | B. signalgrass plant response rating (surinam grass; [1]) | B. signalgrass plant response rating (surinam grass; [2]) | B. signalgrass plant response rating (surinam grass; [3]) | B. signalgrass plant response rating (surinam grass; [4]) | B. signalgrass plant response rating (surinam grass; [5]) | B. signalgrass plant response rating (surinam grass; Rate 125 g/ha, Postemergence, scale 0 (no effect) to 10 (complete control)) | B. signalgrass plant response rating (surinam grass; [7]) | Plant response rating (0 to 10; 0 is no effect, 10 is complete control), B. signalgrass (surinam grass; Rate 250 g/ha, Postemergence) | Wild oats plant response rating (wild oat; [1]) | Wild oats plant response rating (wild oat; [2]) | Wild oats plant response rating (wild oat; [3]) | Wild oats plant response rating (wild oat; [5]) | Wild oats plant response rating (wild oat; [7]) | Crabgrass plant response rating (crabgrass; [1]) | Crabgrass plant response rating (crabgrass; [2]) | Crabgrass plant response rating (crabgrass; [3]) | Crabgrass plant response rating (crabgrass; [4]) | Crabgrass plant response rating (crabgrass; [5]) | Crabgrass plant response rating (crabgrass; [7]) | Plant response rating (0 to 10; 0 is no effect, 10 is complete control), Crabgrass (crabgrass; Rate 250 g/ha, Postemergence)
